Source: patent US20230172920A1, “DOSING REGIMEN FOR TREATING A DISEASE MODULATED BY CSF-1R” (Novartis AG, priority 2020, published 2023)
Read-outs that look alike come from different tables or passages of the source.

Legend:
[1] = Phase I/II first-in-human study CBLZ945X2101: adverse events; format: in vivo
Text: The purpose of this first-in-human (FIH) study of BLZ945 given as a single agent or in combination with spartalizumab is to characterize the safety, tolerability, pharmacokinetics (PK), pharmacodynamics, and anti-tumor activity of BLZ945, administered orally, as a single agent or in combination with spartalizumab, administered intravenously (i.v.) in adult patients with advanced solid tumors.
This study is a FIH, open-label, multi-center, phase I/II, study which consists of a phase I dose escalation part of BLZ945 as single agent (including a separate Japanese BLZ945 single agent dose escalation arm) and in combination with spartalizumab. Alternative dosing regimens of BLZ945 may be evaluated. BLZ945 is being administered orally, and spartalizumab is being administered i.v. every four weeks until patient experiences unacceptable toxicity, progressive disease and/or treatment is discontinued at the discretion of the Investigator or the patient.
BLZ945 dosing is being evaluated on the following schedules, 7 days on/7 days off (i.e., administer BLZ945 every day for 7 days and suspend for 7 days), once weekly (Q1W), and 4 days on/10 days off (i.e., administer BLZ945 every day for 4 days and suspend for 10 days). For each of these schedules, once per day (OD) or twice per day (BID) dosing may be evaluated. For once daily administration, patients should take their dose at approximately the same time in the morning. For the twice a day dosing, the first dose should be taken in the morning and the second dose should be taken approximately 10 to 12 hours after the morning dose.
All patients treated with either BLZ945 single agent or in combination with spartalizumab will begin study treatment on Cycle 1 Day 1. Each cycle will consist of 28 days. […]
As mentioned above, nausea, vomiting have been commonly observed to occur with single-agent administration of BLZ945 in the first-in-human trial (CBLZ945X2101). […] An additional cohort to evaluate 7 days on may also be evaluated.

clinical = assay: clinical; set-up: species or system human; settings: in vivo
Experimental: On days that PK samples are obtained, the patient should take BLZ945 during the clinic visit after the pre-dose PK samples and prior to post-dose PK samples, when instructed by the study staff. Patients should take BLZ945 on an empty stomach (i.e. fast from food and drink, except water) at least 1 hour before or 2 hours after a meal. Each dose should be taken with a glass of water. Patients should be instructed to swallow whole capsules and not to chew or open them.
The preliminary pharmacokinetics (PK) of single dose and multiple doses of oral BLZ945 when administered alone and in combination with spartalizumab has been assessed in the ongoing study CBLZ945X2101.

[2] = system: tumor associated macrophages (TAM) and Tregs; assay: Tumor infiltrating macrophages and Tregs by flow cytometry (MC38 model); format: in vivo, mouse; settings: BLZ945 4 days on/3 days off, single agent and with anti-PD-1
Experimental: In order to access the dynamics of the tumor associated immune cells a repeat study using only the 4 days on/3 days off schedule as a single agent and in combination with anti-PD-1 was performed.
FIG. 5 Analysis of tumor infiltrating macrophages (FIG. 5A) and Tregs (FIG. 5B) upon treatment with BLZ945 in a 4 days on/3 days off schedule on day 10 (A) and day 14 (B) and in combination with anti-PD-1 by flow cytometry. Statistical significance was calculated using a two-tailed, unpaired, non-parametric Mann-Whitney Test was performed to compare treatment to control groups.

[3] = Blood, brain and spinal cord exposure in SOD1G93A mice, b.i.d. dosing (RD-2019-00111); format: in vivo; settings: mouse, brain and spinal cord relative to blood, three hours after the final dose, read-out: brain and spinal cord drug exposure relative to blood
Experimental: Dosing was examined in the SOD1G93A mouse model of ALS, the most commonly used rodent ALS model (RD-2019-00111). Twice daily dosing (b.i.d.) was examined after 5 consecutive dosing days. Microglia were depleted in the cortex by approximately 25% and 75% following treatment with 50 mg/kg and 80 mg/kg BLZ945. BLZ945 dosed b.i.d. at 10 mg/kg was not effective (FIG. 10 A).
FIG. 10: BLZ945-mediated microglial depletion in the cortex, as assessed by Iba1/Aif-1 immunohistological staining (A) or in spinal cord by qPCR analysis (B) Values are group means±SD (n=3). (C and D) Exposure of BLZ945 in blood and CNS brain and spinal cord 3 hours after the final dose of the study.

[4] = Blood and spinal cord exposure, 8-week SOD1G93A efficacy study; format: in vivo, SOD1G93A mouse; settings: for Kp at 3 h / concentration at 3 h: mouse; for Kp at 3 h: spinal cord relative to blood; for concentration at 3 h: blood, read-out: Blood conc.
Experimental: BLZ945 was dosed over an 8-week period in a mouse model of ALS (in house data). BLZ945 was tested for efficacy in preventing or delaying disease progression in the SOD1G93A ALS mouse (RD-2019-00092). […] Normal body weight gain is also impaired in this model. These physiological impairments are considered as mechanistic readouts given that they best recapitulate the clinical disease phenotype (Turner et al 2013). Animals were dosed from 8 to 16 weeks of age with daily (q.d) doses of BLZ945 at either 65 mg/kg, 170 mg/kg, or 170 mg/kg delivered intermittently with a 7 day ON/7 day OFF regimen.
Microglia were depleted by greater than 90% with the high dose (170 mg/kg) of BLZ945 and by about 50% with the low dose (65 mg/kg). […] Blood and CNS exposure to BLZ945 were measured at 3 hours post-dose on the day of necropsy (Table 8). BLZ945 spinal cord exposure ratios (relative to blood) were consistent across dose groups at approximately 0.4 (Table 9).

## CNC(=O)c1cc(Oc2ccc3nc(N[C@@H]4CCCC[C@H]4O)sc3c2)ccn1 [BLZ945, 4-((2-(((1R,2R)-2-hydroxycyclohexyl)amino)benzo[d]thiazol-6-yl)oxy)-N-methylpicolinamide]
[1]; in vivo
  most frequently reported AEs (>10%) suspected to be related to treatment: aspartate aminotransferase (AST) increased, nausea, vomiting, alanine aminotransferase (ALT) increased, fatigue, amylase increased, blood creatine phosphokinase increased and decreased appetite
  serum enzyme elevation: Asymptomatic serum enzyme elevation including AST, ALT, CK and alkaline phosphatase elevations
[1]; single agent arm, combination arm
  suspected SAEs (grade and kind): Grade 3 AST increased, Grade 3 asthenia and Grade 4 sudden death
clinical; human
  mean accumulation index (Racc): 1.07-1.24
clinical; human, po, 150 mg
  AUC(0-t): 102 µg·h/mL
  Cmax: 6950 ng/mL
clinical; human, po, 300 mg
  AUC(0-t): 203 µg·h/mL
  Cmax: 13900 ng/mL
clinical; human, po, 600 mg
  AUC(0-t): 378 µg·h/mL
  Cmax: 24500 ng/mL
clinical; human, po, 800 mg
  AUC(0-t): 413 µg·h/mL
  Cmax: 22700 ng/mL
clinical; human, po, 1200 mg
  AUC(0-t): 599 µg·h/mL
  Cmax: 32700 ng/mL
clinical; po
  absorption: rapid absorption
[2]; after 10 and 14 days of treatment
  TAM in tumor: significant decrease
[2]; day 10 after treatment start
  Tregs in tumor: transient decrease
[3]
  Kp at 3 h: ~0.3
[4]; 65 mg/kg q.d., 3 h post-dose
  Spinal Cord Conc.: 11799.8 pmol/g
[4]; 170 mg/kg CONT, 3 h post-dose
  Spinal Cord Conc.: 28358.8 pmol/g
[4]; 170 mg/kg INT (7 day ON/7 day OFF), 3 h post-dose
  Spinal Cord Conc.: 18573.5 pmol/g
[4]; SOD1G93A (transgenic ALS model), 170 mg/kg CONT, 3 h post-dose, read-out: Spinal Cord/Blood ratio
  Kp at 3 h: 0.42
[4]; SOD1G93A, 65 mg/kg, 65 mg/kg q.d., 3 h post-dose
  concentration at 3 h: 29.3 µM
[4]; SOD1G93A, 170 mg/kg, 170 mg/kg CONT, 3 h post-dose
  concentration at 3 h: 66.3 µM
[4]; SOD1G93A, 170 mg/kg, 170 mg/kg INT (7 day ON/7 day OFF), 3 h post-dose
  concentration at 3 h: 50.4 µM
[4]; SOD1G93A, 65 mg/kg q.d., 3 h post-dose, read-out: Spinal Cord/Blood ratio
  Kp at 3 h: 0.42
[4]; SOD1G93A, 170 mg/kg INT (7 day ON/7 day OFF), 3 h post-dose, read-out: Spinal Cord/Blood ratio
  Kp at 3 h: 0.36
[4]; SOD1G93A, across dose groups, 3 hours post-dose, read-out: spinal cord exposure ratios (relative to blood)
  Kp at 3 h: ~0.4
